Measured values as given in article PMC6928678, “Simplified Head-to-Tail Cyclic Polypeptides as Biomaterial-Associated Antimicrobials with Endotoxin Neutralizing and Anti-Inflammatory Capabilities” (International Journal of Molecular Sciences, 2019).
In brackets after ≈: the same amount, converted by molar mass. Where a SMILES comes first, the peptide text is derived from it. [ ]: non-standard residue; d: D form. Orn = NCCC[C@H](N)C(=O)O

Columns and labels:
E. coli ATCC 25,922 [1] = experiment: Swimming motility assay; type: cell-based; settings: 0.3% agar; OIR3, IR3, DIR3 at 4 μM and 8 μM; GS at all tested concentrations (1–8 µM)
Description: Figure 10 Swimming motility of E. coli ATCC 25,922 treated with OIR3, IR3, DIR3 and GS. Swim plates were prepared using 0.3% agar and inoculated from overnight cultures standardized to an optical density at 600 nm of 1.0. Images were taken after 20 h incubation at 37 °C. Data shown are the mean ± SD of three independent experiments.
Since E. coli ATCC 25,922 cell walls have flagella, their swimming motility can be measured in LB medium containing 0.3% agar. E. coli ATCC 25,922 bacteria were incubated overnight at 37 °C in a shaker until the OD600 = 1.0, then inoculated into 0.3% agar medium containing 1 µM, 2 µM, 4 µM or 8 µM of antimicrobial peptide and incubated again overnight at 37 °C. The swimming motility for each was then measured; each experiment was repeated three times.

E. coli ATCC 25,922 [2] = experiment: Flow cytometry membrane integrity assay (PI uptake); type: cell-based; settings: PI 10 ug/mL, 30 min at 4 °C
Description: Figure 7 Flow cytometric analysis. Exponential phase E. coli cells were treated with GS, OIR3 and cellular fluorescence was analyzed by flow cytometry.
Membrane integrity assay. […] FACS flow cytometer (Becton–Dickinson, Franklin Lake, New Jersey, USA USA) was used to obtain the data with a laser excitation wavelength of 488 nm.

S. aureus 25923 = experiment: microbe, parasite or virus in culture; type: cell-based, Staphylococcus aureus; settings: 25923, 20 h
Description: (§1) The test strains, including Gram-negative E. coli ATCC25922, E. coli ATCC 1005, S. typhimurium C7731, P. aeruginosa ATCC 27853, S. Typhimurium 14028, Gram-positive S. aureus ATCC29213, S. aureus ATCC 25923, S. epidermidis ATCC 12228 and S. aureus 43300, were obtained from the School of Veterinary Medicine, Northeast Agricultural University (Harbin, China).
(§2) Briefly, the bacteria were incubated overnight at 37 °C with constant shaking at 220 rpm, then were transferred to new MH broth (MHB) medium until they reached the logarithmic phase of growth. The bacteria were then diluted to 10^5 (CFU)/mL in MHB. The peptides were dissolved and diluted in 0.01% acetic acid and 0.2% bovine serum albumin (BSA) at various concentrations (0.5–128 μM) in each well of sterile 96-well plates and incubated for 20 h at 37 °C. […] The test was repeated three times.

S. aureus 29213 = experiment: microbe, parasite or virus in culture; type: cell-based, Staphylococcus aureus; settings: 29213, 20 h
Description: as §1, §2

[3] = tested on: lipopolysaccharide (LPS, derived from E. coli 055: B5); experiment: BODIPY-TR-cadaverine displacement assay (LPS binding)
Description: (§3) Figure 3 (A) The combining ability of OIR3 and gramicidin S (GS; 0.5 μM, 1 μM, 2 μM, […], 8 μM, 16 μM and 32 μM) with lipopolysaccharide (LPS). (B) SPR spectroscopy of the interaction kinetics of the peptides and LPS. The peptides were immobilized on a CM5 sensor chip as a ligand, and LPS was diluted in a series of concentrations (3.125, 6.25, 12.5, 25 and 50 μg/mL). Data shown are three independent experiments.
The BODIPY-TR-cadaverine (BC) displacement assay was previously used to quantify the binding affinities of test compounds to LPS [61]. The fluorescent dye BC is quenched by binding to LPS, causing its fluorescence to disappear. When the antimicrobial peptide is added, if the binding of the peptide to LPS is stronger, BODIPY-TR-cadaverine will be released and the fluorescence restored. Briefly, in a 96-well plate, an equal volume with a different concentration (0.5–64 μM) of peptide was added to a mixture (100 μL) of LPS (25 μg/mL) and BC (2.5 μg/mL) in Tris buffer (pH 7.4), and the background fluorescence was recorded (excitation wavelength 580 nm, emission wavelength 620 nm). The changes in fluorescence were recorded using a Tecan Infinite M200 PRO (Tecan, San Jose, CA, USA); polymyxin B was used as a positive control. Each test was performed independently, in triplicate.

MRSA43300 = experiment: microbe, parasite or virus in culture; type: cell-based, Methicillin-resistant Staphylococcus aureus; settings: 20 h
Description: as §1, §2

S. typhimurium 14028 = experiment: microbe, parasite or virus in culture; type: cell-based; settings: 14028, 20 h
Description: as §1, §2

P. aeruginosa 27853 = experiment: microbe, parasite or virus in culture; type: cell-based; settings: 27853, 20 h; read-out: MIC
Description: as §1, §2

S. typhimurium 7731 = experiment: microbe, parasite or virus in culture; type: cell-based; settings: 7731, 20 h
Description: as §1, §2

S. epidermidis 12228 = experiment: microbe, parasite or virus in culture; type: cell-based; settings: 12228, 20 h
Description: as §1, §2

E. coli 25922 = experiment: microbe, parasite or virus in culture; type: cell-based, Escherichia coli; settings: 25922, 20 h
Description: as §1, §2

E. coli UB 1005 = experiment: microbe, parasite or virus in culture; type: cell-based, Escherichia coli; settings: UB 1005, 20 h
Description: as §1, §2

[4] = tested on: gram-positive strains tested; experiment: organism not typed; type: cell-based; settings: 20 h
Description: as §2

LPS = experiment: Surface plasmon resonance of peptide-LPS interaction; type: binding; settings: peptide on CM5 chip, LPS 3.125–50 µg/mL, 20 mM Tris, 100 mM NaCl, pH 7.4
Description: as §3
Surface plasmon resonance (SPR) is a method commonly used to study protein–protein interactions. The main advantage of SPR is that it provides the ability to measure the binding affinities and association/dissociation kinetics of complexes in real time, in a label-free environment, and using relatively small quantities of materials. Real-time binding interactions between peptides and LPS were measured by using the Biacore 3000 instrument (GE Healthcare, Waukesha, Wisconsin, USA). In […] sodium acetate buffer (pH 5.5), the cyclic antimicrobial peptides OIR3, IR3, DIR3 and GS were diluted to an optimum fixed concentration of 25.6 µM, and then covalently immobilized on the CM5 sensor chip; nearly 1100 resonant units (RU) of the peptide were captured. All measurements were performed in 20 mM Tris buffer (pH 7.4) containing 100 mM NaCl. […]

Row | SMILES | inhibition of swimming motility (E. coli ATCC 25,922 [1]) | percentage of PI-positive cells (E. coli ATCC 25,922 [2]; 1/2× MIC (OIR3 1 µM, GS 2 µM)) | percentage of PI-positive cells (E. coli ATCC 25,922 [2]; 1× MIC (OIR3 2 µM, GS 4 µM)) | percentage of PI-positive cells (E. coli ATCC 25,922 [2]; 2× MIC (OIR3 4 µM, GS 8 µM)) | MIC (S. aureus 25923) | MIC (S. aureus 29213) | combining ability with LPS ([3]; all concentrations tested (0.5–32 μM)) | MIC (MRSA43300) | MIC (S. typhimurium 14028) | MIC (P. aeruginosa 27853) | MIC (S. typhimurium 7731) | MIC (S. epidermidis 12228) | MIC (E. coli 25922) | MIC (E. coli UB 1005) | pGM (+), geometric mean of the MICs against gram-positive strains [4] | binding of LPS to immobilized peptide (SPR) (LPS) | LPS-binding activity ([3]; 2 μM peptide, BODIPY-TR-cadaverine displacement, LPS 25 μg/mL, Tris buffer pH 7.4) | LPS neutralized (LPS-binding activity) ([3]; 4 μM peptide, BODIPY-TR-cadaverine displacement, LPS 25 μg/mL, Tris buffer pH 7.4)
1 | CC(C)C[C@@H]1NC(=O)[C@H](CCCN)NC(=O)[C@H](C(C)C)NC(=O)[C@@H]2CCCN2C(=O)[C@@H](Cc2ccccc2)NC(=O)[C@H](CC(C)C)NC(=O)[C@H](CCCN)NC(=O)[C@H](C(C)C)NC(=O)[C@@H]2CCCN2C(=O)[C@@H](Cc2ccccc2)NC1=O [GS, gramicidin S, reference compound] (cyclo(V[Orn]L[dF]PV[Orn]L[dF]P)) | almost no inhibition | 7.3% | 37.8% | 93.3% | 2 µM (≈ 2.28 µg/mL) | 2 µM (≈ 2.28 µg/mL) | relatively low | 2 µM (≈ 2.28 µg/mL) | 16 µM (≈ 18.3 µg/mL) | 4 µM (≈ 4.57 µg/mL) | 8 µM (≈ 9.13 µg/mL) | 2 µM (≈ 2.28 µg/mL) | 4 µM (≈ 4.57 µg/mL) | 4 µM (≈ 4.57 µg/mL) | 2 µM | weak binding to LPS at high concentrations and almost no binding at the low concentrations | – | –
2 | CC[C@H](C)[C@@H]1NC(=O)[C@H](CCCNC(=N)N)NC(=O)[C@H]([C@@H](C)CC)NC(=O)[C@@H]2CCCN2C(=O)[C@H](CCCNC(=N)N)NC(=O)[C@H]([C@@H](C)CC)NC(=O)[C@H](CCCNC(=N)N)NC(=O)[C@H]([C@@H](C)CC)NC(=O)[C@H](CCCNC(=N)N)NC(=O)[C@H]([C@@H](C)CC)NC(=O)[C@@H]2CCCN2C(=O)[C@H](CCCNC(=N)N)NC(=O)[C@H]([C@@H](C)CC)NC(=O)[C@H](CCCNC(=N)N)NC1=O [OIR3] (cyclo(IRIRIRPIRIRIRP)) | significantly inhibit | 25% | 62% | 76.4% | 4 µM (≈ 7.24 µg/mL) | 4 µM (≈ 7.24 µg/mL) | – | 4 µM (≈ 7.24 µg/mL) | 4 µM (≈ 7.24 µg/mL) | 8 µM (≈ 14.5 µg/mL) | 4 µM (≈ 7.24 µg/mL) | 4 µM (≈ 7.24 µg/mL) | 2 µM (≈ 3.62 µg/mL) | 2 µM (≈ 3.62 µg/mL) | 4.0 µM | rapidly binds | 81% | 98%
